Reference: patent publication US4892885A, “Esters of (triarylphosphoranylidene)carbamic acid for effecting diuresis” (American Cyanamid Company, priority 1988, dated 1990)

Legend:
[1] = system: Spontaneously Hypertensive Rats; assay: Diuretic activity in spontaneously hypertensive rats (0-5 hour urine); type: in vivo, Male spontaneously hypertensive rats (SHR) of Okamoto strain; details: 100 mg/kg by gavage, sodium chloride loading, SHR
Protocol: The diuretic activity of the compounds of this invention was also determined according to the method of Chan, P. S. and Poorvin, D., "Sequential method for combined screening antihypertensive and diuretic agents in the same spontaneously hypertensive rat." Clinical and Experimental Hypertension, 1(6), 817-830 (1979). Male spontaneously hypertensive rats (SHR) of Okamoto strain, 16 weeks old, Taconic Farms Inc. were used in the test. These rats were kept on Purina laboratory chow and tap water ad libitum for 8 weeks before use. One male adult rat (about 300 g) was dosed by gavage with a test compound at 100 mg/kg together with 0.9 sodium chloride loading at […] at zero hour. The tese compound was suspended in 3% preboiled starch at 50 mg/ml. The rat was put in a metabolism cage. The 0-5 hour urine was collected and urinary sodium and potassium were determined using a Beckman Astra 4.

[2] = system: plasma renin activity; assay: Inhibition of evoked (drug-induced) increase of plasma renin activity (PRA) in conscious rats; type: in vivo; details: 25 mg/kg oral, 30 minutes prior to hydrochlorothiazide (10 mg/kg) + ACE inhibitor (1 mg/kg) provocative treatment; male Wistar rats; number of rats in parentheses
Protocol: Inhibition of evoked increase of plasma renin activity was determined by the following test.
Compounds were tested for their ability to prevent drug-induced elevation of plasma renin activity (PRA) in conscious, male Wistar rats (180-200 g, Charles River Lab.). PRA elevation was induced by a combined oral provocative treatment (C) of hydrochlorothiazide (10 mg/kg) and 1-(3-benzoyl-3-mercapto-2-methylpropionyl)-L-proline, acetate (U.S. Pat. No. 4,226,775) (one mg/kg), prepared by compounding in a mortar and pestle with preboiled 3% starch suspension. This treatment provided the daily maximum PRA. The daily minimum PRA was obtained from rats given oral starch suspension (S) alone. The magnitude of drug effect on PRA elevation was ascertained from rats pretreated orally with test agent (D), at the indicated doeses, 30 minutes prior to administration of provocative treatment (C). The test agent was also compounded in preboiled 3% starch suspension. The dose volumes for both pretreatment and provocative treatment were 2 ml/kg. One hour after provocative treatment the rats were sacrificed by decapitation and the first 3 seconds of blood collected in two chilled vacutainer tubes containing […] of 150 mg/ml tripotassium EDTA. […]
PRA is calculated as follows: PRA ([…])=PRA 37° C.-PRA 4° C.
Percent inhibition of PRA elevation is calculated as follows: [formula]

SMILES | Potassium (urinary) [1] [MEQ/5 Hours] | Sodium (urinary) [1] [MEQ/5 Hours] | Volume (urine) [1] [mL] | Percent Inhibition of Plasma Renin Elevation, Average % Inhibition (No. of rats) [2] [%]
CCOC(=O)N=P(c1ccccc1)(c1ccccc1)c1ccccc1CN1CCCCC1 [[Diphenyl[2-(1-piperidinylmethyl)phenyl]phosphoranylidene]carbamic acid, ethyl ester] | 0.37 | 1.92 | 18.8 | 
CCOC(=O)N=P(c1ccccc1)(c1ccccc1)c1ccccc1CN1CCCC1 [[Diphenyl[2-(1-pyrrolidinylmethyl)phenyl]phosphoranylidene]carbamic acid, ethyl ester] | 0.56 | 1.36 | 12.0 | 
CCOC(=O)N=P(c1ccccc1)(c1ccccc1)c1ccccc1CN(C)C [[[2-[(Dimethylamino)methyl]phenyl]diphenylphosphoranylidene]carbamic acid, ethyl ester] | 0.67 | 1.47 | 15.5 | 16
COC(=O)N=P(c1ccccc1)(c1ccccc1)c1ccccc1CN(C)C [[[2-[(Dimethylamino)methyl]phenyl]diphenylphosphoranylidene]carbamic acid, methyl ester] | 0.83 | 1.62 | 19.5 | 77
CCCN(CCC)Cc1ccccc1P(=NC(=O)OCC)(c1ccccc1)c1ccccc1 [[[2-[(Dipropylamino)methyl]phenyl]diphenylphosphoranylidene]carbamic acid, ethyl ester] | 0.40 | 1.41 | 22.0 | 
CCOC(=O)N=P(c1ccccc1)(c1ccccc1)c1ccccc1CNC.Cl [[[2-[(Methylamino)methyl]phenyl]diphenylphosphoranylidene]carbamic acid, ethyl ester, monohydrochloride] | 0.51 | 1.66 | 17.5 | 
CCOC(=O)N=P(c1ccccc1)(c1ccccc1)c1ccccc1CN(CC)CC [[[[2-(Diethylamino)methyl]phenyl]diphenylphosphoranylidene]carbamic acid, ethyl ester] | 0.48 | 2.46 | 23.3 | 
